Data from US6153429A (priority 1997, dated 2000).

Assay: in vitro
Settings: mouse, c3h/10t1/2 t1 cells
Work on `c1ccc2c(c1)cc1ccc3cccc4ccc2c1c34` [Benzo[a]pyrene, benzo[a]pyrene] yielded a fold induction at 504 h of 1.15.
`CC/C(=C(/CC)c1ccc(O)cc1)c1ccc(O)cc1` [Diethylstilbestroel, diethylstilbestroel] gave a fold induction at 504 h of 1.12.
With `C=C(C)C12OC3(c4ccccc4)OC1C1C4OC4(CO)C(O)C4(O)C(=O)C(C)=CC4C1(O3)C(C)C2OC(=O)/C=C/C=C/c1ccccc1` (stereo not drawn) [Mezerein, mezerein] the fold induction at 504 h was 2.
Work on `Cn1c(=O)c2c(ncn2C)n(C)c1=O` [caffeine] yielded a fold induction at 504 h of 1.
Compound `C1CCOC1` [tetrahydrofuran] has a fold induction at 504 h of 1.

Assay: not given
Settings: background statement, chemicals identified by IARC; cited from earlier work
In the case of `CC/C(=C(/CC)c1ccc(O)cc1)c1ccc(O)cc1` [Diethylstilbestroel, diethylstilbestroel], the mutagenicity is given as “only weakly mutagenic”.
